Structures can show the parent of a compound that is named as a salt.
Assays:
FLT3 = target: T1, FLT3 (Homo sapiens, UniProt P36888); assay: IMAP fluorescence polarization kinase assay, FLT3; type: biochemical; details: ATP 2.74 μM, enzyme 2.5 nM, 240 minutes, read-out: FLT3 inhibitory constant (Ki)
T1 sequence (P36888 27-993): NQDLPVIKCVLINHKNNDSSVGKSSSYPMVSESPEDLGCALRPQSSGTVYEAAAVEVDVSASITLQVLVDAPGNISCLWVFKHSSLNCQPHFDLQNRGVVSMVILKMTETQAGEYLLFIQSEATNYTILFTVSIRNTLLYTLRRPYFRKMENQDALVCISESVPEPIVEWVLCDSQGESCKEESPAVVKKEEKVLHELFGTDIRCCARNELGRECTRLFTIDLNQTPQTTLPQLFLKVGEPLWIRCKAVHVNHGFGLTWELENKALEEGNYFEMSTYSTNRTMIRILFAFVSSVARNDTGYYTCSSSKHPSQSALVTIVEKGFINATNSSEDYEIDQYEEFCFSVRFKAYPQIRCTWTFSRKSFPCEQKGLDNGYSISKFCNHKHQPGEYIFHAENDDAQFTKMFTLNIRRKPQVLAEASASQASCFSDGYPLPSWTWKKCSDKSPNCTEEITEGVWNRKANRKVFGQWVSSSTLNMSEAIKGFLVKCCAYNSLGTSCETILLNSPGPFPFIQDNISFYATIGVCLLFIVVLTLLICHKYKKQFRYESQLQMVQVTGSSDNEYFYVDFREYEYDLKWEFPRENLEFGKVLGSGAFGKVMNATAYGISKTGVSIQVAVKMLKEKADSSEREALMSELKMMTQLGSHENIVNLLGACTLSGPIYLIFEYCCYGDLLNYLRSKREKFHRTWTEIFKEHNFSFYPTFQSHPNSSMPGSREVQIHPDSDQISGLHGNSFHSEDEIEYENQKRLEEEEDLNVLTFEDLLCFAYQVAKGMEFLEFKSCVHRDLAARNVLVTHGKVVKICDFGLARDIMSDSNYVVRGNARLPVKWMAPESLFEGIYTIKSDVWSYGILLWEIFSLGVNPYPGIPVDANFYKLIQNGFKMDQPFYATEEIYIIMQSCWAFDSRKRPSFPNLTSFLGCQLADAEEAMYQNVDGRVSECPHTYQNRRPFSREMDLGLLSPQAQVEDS
Experimental: (§1) Activities of compounds against each of TYRO3, AXL, and MERTK as well as against FLT3, were determined using an immobilized metal ion affinity-based fluorescence polarization (“IMAP”) assay. A fluorescently-labeled substrate peptide was phosphorylated in the kinase reaction, after which a binding solution containing large trivalent metal-based nanoparticles was added and the phosphorylated substrate binds to these beads. This reduces the rotational speed of the substrate which is then detected using fluorescence polarization as a read-out.
(§2) The substrates used for each enzyme are as follows: AXL: 5F1-KKKKEEIYFFFG-NH2(SEQ ID NO:1); FLT3: 5F1-KKKKEEIYFFF-NH2 (SEQ ID NO:2); MERTK: 5F1-EFPIYDFLPAKKK-NH2 (SEQ ID NO:3); and TYRO3: 5F1-EFPIYDFLPAKKK-NH2 (SEQ ID NO:4).
(§3) This assay was performed in a 384-well, polystyrene microplate in a final volume of 8 μl. Substrate (final concentration=400 nM), ATP (final concentrations=24.7μM for AXL; 2.74 μM for FLT3; 2.69 μM for MERTK; and 54.0 μM for TYRO3), compounds and enzyme (final concentrations=2.5 nM for AXL, FLT3 and TYRO3; 1.5 nM for MERTK) were pipetted in this order into the appropriate reaction buffer (AXL: 50 mM HEPES, pH 8.0, 1 mM DTT, 10 mM MgCl2, 0.01% BRU35, 0.01% Triton X-100; FLT3: 50 mM HEPES, pH 8.0, 1 mM DTT, 10 mM MgCl2, 0.01% Triton X-100, 0.01% NP40; MERTK/TYRO3: 50 mM HEPES, pH 8.0, 1 mM DTT, 10 mM MgCl2, 0.01% Triton X-100) and incubated at room temperature for varying times (AXL, FLT3 and MERTK: 240 minutes; TYRO3: 60 minutes). IMAP binding solution was then dispensed, the plate incubated for 60 minutes at room temperature and the fluorescence polarization measured. Data were analyzed using XLfit.

TYRO3 = target: T2, TYRO3 (Homo sapiens, UniProt Q06418); assay: IMAP fluorescence polarization kinase assay, TYRO3; type: biochemical; details: ATP 54.0 μM, enzyme 2.5 nM, 60 minutes, read-out: TYRO3 inhibitory constant (Ki)
T2 sequence (Q06418 41-890): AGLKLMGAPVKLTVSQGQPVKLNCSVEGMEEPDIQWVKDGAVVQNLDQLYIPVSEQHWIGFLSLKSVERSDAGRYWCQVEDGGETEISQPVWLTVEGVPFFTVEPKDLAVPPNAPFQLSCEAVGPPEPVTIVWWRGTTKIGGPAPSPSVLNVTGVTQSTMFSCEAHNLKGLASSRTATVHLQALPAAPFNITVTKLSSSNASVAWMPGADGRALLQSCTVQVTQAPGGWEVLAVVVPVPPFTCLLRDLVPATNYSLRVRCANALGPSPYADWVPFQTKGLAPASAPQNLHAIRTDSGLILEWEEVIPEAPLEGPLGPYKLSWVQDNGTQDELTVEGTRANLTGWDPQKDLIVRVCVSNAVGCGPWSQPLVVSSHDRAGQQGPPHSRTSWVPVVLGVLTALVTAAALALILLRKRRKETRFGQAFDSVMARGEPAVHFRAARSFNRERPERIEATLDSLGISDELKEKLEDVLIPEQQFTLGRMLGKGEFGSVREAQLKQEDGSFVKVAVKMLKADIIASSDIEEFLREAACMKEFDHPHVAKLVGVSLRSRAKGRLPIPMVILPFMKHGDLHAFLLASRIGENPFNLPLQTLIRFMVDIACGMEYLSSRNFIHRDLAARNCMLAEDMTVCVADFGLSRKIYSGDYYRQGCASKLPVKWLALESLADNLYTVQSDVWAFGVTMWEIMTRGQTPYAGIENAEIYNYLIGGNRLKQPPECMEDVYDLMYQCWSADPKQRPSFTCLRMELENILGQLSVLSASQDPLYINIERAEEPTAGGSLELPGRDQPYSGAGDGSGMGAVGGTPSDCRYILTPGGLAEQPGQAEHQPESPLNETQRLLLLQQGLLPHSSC
Experimental: as §1, §2, §3

SMILES | Ki (FLT3) [nM] | Ki (TYRO3) [nM]
CCCc1cc2c(N[C@H]3CC[C@H](N)CC3)c(C(=O)Nc3ccc(F)cc3)cnc2[nH]1 [Compound 100, 4-(((1r,4r)-4-aminocyclohexyl)amino)-N-(4-fluorophenyl)-2-propyl-1H-pyrrolo [2,3-b]pyridine-5-carboxamide hydrochloride] | < 100 | < 100
CCCc1cc2c(N[C@H]3CC[C@H](O)CC3)c(C(=O)Nc3ccc(F)cc3)cnc2[nH]1 [Compound 101] | 100 to 1000 | 100 to 1000
CCCc1cc2c(N[C@H]3CC[C@H](O)CC3)c(C(=O)NCc3ccc(-n4ccnc4)cc3)cnc2[nH]1 [Compound 102] | < 100 | < 100
Cc1cc2c(N[C@H]3CC[C@H](N)CC3)c(C(=O)Nc3ccc(F)cc3)cnc2[nH]1 [Compound 103] | < 100 | 1000 to 10000
CCCc1cc2c(N[C@H]3CC[C@H](O)CC3)c(C(=O)NC3CCN(c4ncccn4)CC3)cnc2[nH]1 [Compound 104] | 100 to 1000 | < 100
CCCc1cc2c(N[C@H]3CC[C@H](O)CC3)c(-c3ccc(CN4CCOCC4)cn3)cnc2[nH]1 [Compound 105] | < 100 | < 100
CCCc1cc2c(N[C@H]3CC[C@H](O)CC3)c(-c3ccc(CN4CCOCC4)cc3)cnc2[nH]1 [Compound 106, (1r,4r)-4-((5-(4-(morpholinomethyl)phenyl)-2-propyl-1H-pyrrolo[2,3-b]pyridin-4-yl)amino)cyclohexanol hydrochloride] | 100 to 1000 | 100 to 1000
CCCc1cc2c(N[C@H]3CC[C@H](O)CC3)c(-c3cnn(CCN(C)C)c3)cnc2[nH]1 [Compound 107] | 100 to 1000 | 100 to 1000
CCCc1cc2c(N[C@H]3CC[C@H](N)CC3)c(-c3cnn(C)c3)cnc2[nH]1 [Compound 108, (1r,4r)-N1-(5-(1-methyl-1H-pyrazol-4-yl)-2-propyl-1H-pyrrolo[2,3-b]pyridine-4-yl)cyclohexane-1,4-diamine hydrochloride] | 100 to 1000 | < 100
CCCc1cc2c(N[C@H]3CC[C@H](O)CC3)c(-c3ccc(CNCC45C[C@H]6C[C@@H](C4)C[C@@H](C5)C6)cn3)cnc2[nH]1 [Compound 109] | < 100 | < 100
N[C@H]1CC[C@H](Nc2c(C(=O)NCc3ccc(-n4ccnc4)cc3)cnc3[nH]c(-c4ccccc4)cc23)CC1 [Compound 110] | 1000 to 10000 | < 100
CCCc1cc2c(N[C@H]3CC[C@H](N)CC3)c(-c3cc(NC)ncn3)cnc2[nH]1 [Compound 111, (1r,4r)-N^1-(5-(6-(methylamino)pyrimidin-4-yl)-2-propyl-1H-pyrrolo[2,3-b]pyridine-4-yl)cyclohexane-1,4-diamine hydrochloride] | < 100 | < 100
CCCc1cc2c(N[C@H]3CC[C@H](N)CC3)c(-c3cc(NC(C)C)ncn3)cnc2[nH]1 [Compound 112] | < 100 | < 100
CCCc1cc2c(N[C@H]3CC[C@H](N)CC3)c(-c3ccccn3)cnc2[nH]1 [Compound 113] | < 100 | < 100
CCCc1cc2c(N[C@H]3CC[C@H](N)CC3)c(-c3ccc(F)cn3)cnc2[nH]1 [Compound 114] | < 100 | < 100
CCCc1cc2c(N[C@H]3CC[C@H](N)CC3)c(-c3ccc(S(=O)(=O)N4CCOCC4)cn3)cnc2[nH]1 [Compound 115] | < 100 | < 100
CCCc1cc2c(N[C@H]3CC[C@H](N)CC3)c(-c3cc(N)ncn3)cnc2[nH]1 [Compound 116] | < 100 | < 100
CCCc1cc2c(N[C@H]3CC[C@H](N)CC3)c(-c3nccs3)cnc2[nH]1 [Compound 117] | < 100 | < 100
CCCc1cc2c(N[C@H]3CC[C@H](N)CC3)c(-c3ccnc(N4CCCC4)n3)cnc2[nH]1 [Compound 118, (1r,4r)-N1-(2-propyl-5-(2-(pyrrolidin-1-yl)pyrimidin-4-yl)-1H-pyrrolo[2,3-b]pyridine-4-yl)cyclohexane-1,4-diamine hydrochloride] | < 100 | < 100
CCc1cc2c(N[C@H]3CC[C@H](N)CC3)c(C(=O)NCc3ccc(-n4ccnc4)cc3)cnc2[nH]1 [Compound 119, N-(4-(1H-imidazol-1-yl)benzyl)-4-(((1r,4r)-4-aminocyclohexyl)amino)-2-ethyl-1H-pyrrolo[2,3-b]pyridine-5-carboxamide] | < 100 | < 100
CCCc1cc2c(N[C@H]3CC[C@H](N)CC3)c(-c3ccc(N)cn3)cnc2[nH]1 [Compound 120] | < 100 | < 100
CCCc1cc2c(N[C@H]3CC[C@H](N)CC3)c(C(=O)NCc3ccc(-n4ccnc4)cc3)cnc2[nH]1 [Compound 121] | < 100 | < 100
CCCc1cc2c(N[C@H]3CC[C@H](N)CC3)c(-c3cc(OC)ncn3)cnc2[nH]1 [Compound 122] | < 100 | < 100
CCCc1cc2c(N[C@H]3CC[C@H](N)CC3)c(-c3ccnc(N)n3)cnc2[nH]1 [Compound 123] | < 100 | < 100
CCCc1cc2c(N[C@H]3CC[C@H](N)CC3)c(C(=O)NC3CCOCC3)cnc2[nH]1 [Compound 124] | 100 to 1000 | < 100
CCCc1cc2c(N[C@H]3CC[C@H](O)CC3)c(-c3ccc(CN4CCCC4)cn3)cnc2[nH]1 [Compound 125] | < 100 | < 100
N[C@H]1CC[C@H](Nc2c(C(=O)NCc3ccc(-n4ccnc4)cc3)cnc3[nH]c(C4CCCC4)cc23)CC1 [Compound 126] | < 100 | < 100
CCCc1cc2c(N[C@H]3CC[C@H](N)CC3)c(-c3ccc(C)nn3)cnc2[nH]1 [Compound 127] | < 100 | < 100

Reference: patent US20200071326A1, “TAM KINASE INHIBITORS” (Syros Pharmaceuticals, Inc., priority 2017, published 2020)
